Results on one molecule are retold here after US7338932B2, “Methods of modulating functions of polypeptide GalNAc-transferases and of screening test substances to find agents herefor, pharmaceutical compositions comprising such agents and the use of such agents for preparing medicaments” (Glycozym APS, priority 2000, dated 2008).

Experiment [1] has as its target T1, GalNAc-T4 (Homo sapiens, UniProt Q8N4A0).
T1 construct: using the GalNAc-T4-sol construct that encodes residues 32-578 inserted into pT7T3U19; made in house; host or cells: High Five insect cells (baculovirus, pAcGP67)
Briefly: Inhibition of glycosylation dependent (GalNAc-glycopeptide) activity of GalNAc-T4, MALDI-TOF time-course. The format is biochemical. Particulars: […] free sugar. As to the method: (§1) MALDI-TOF time-course in terminal reactions were performed in reactions of 25 μl containing 2.5 nmol acceptor (glyco)peptide, 40 nmol UDP-GalNAc, and 0.4 μg GalNAc-T4. Sampling of reactions (1 μl) were purified by nano-scale reversed-phase chromatography (Poros R3, PerSeptive Biosystem) and applied directly to the probe with matrix (41). The amount of GalNAc-transferase added was adjusted so that the reaction with the appropriate peptide was near completion in six hours. Reactions were incubated at 37° C. in a shaker bath. At times 0, 2 hours, and 16 hours a 1 μl aliquot was taken and purified. Mass spectra were acquired on either Voyager-DE mass spectrometer equipped with delayed extraction (Perseptive Biosystem Inc.). The matrix used was 2,5-dihydroxybenzoic acid (10 mg/ml, Hewlett-Packard) dissolved in a 2:1 mixture of 0.1% trifluoroacetic acid in 30% aqueous acetonitrile (Rathburn Ltd.).
Quantification of purified proteins was done by Coomassie stained SDS-PAGE and titration of immunoreactivity with the monoclonal antibody, UH6(4G2) (8). […] Wild-type GalNAc-T4 and mutant GalNAc-T4, GalNAc-T4^459H, were analysed with unglycosylated peptides (represented by PSGL-1) or GalNAc glycosylated glycopeptides (represented by GalNAc3TAP25V21) in reactions of 25 μl containing 2.5 nmol acceptor (glyco)peptide, 40 nmol UDP-GalNAc, and 0.4 μg GalNAc-T4. Time-course assays were motioned by MALDI-TOF. Sampling of reactions (1 μl) were purified by nano-scale reversed-phase chromatography (Poros R3, PerSeptive Biosystem) and applied directly to the probe with matrix. Evaluation of inhibition of the glycopeptide specificity of wild-type GalNAc-T4 with free sugars was performed to establish if the lectin domain recognized carbohydrate. […] Further, analysis was performed with 10 mM α-D-GalNAc-1-benzyl, αGlcNAc-benzyl, and fully occupied GalNAc-glycopeptide, GalNAc6TAP25, at 5 mM.

Experiment [2] deals with T2, GalNAc-T3 (Homo sapiens, UniProt Q14435).
T2 construct: Soluble, secreted expression constructs of human GalNAc-transferases GalNAc-T1, -T2, -T3, -T4, -T6, -T7, and -T11; made in house; host or cells: insect cells (baculovirus)
T2 sequence (Q14435 38-633 limits assumed): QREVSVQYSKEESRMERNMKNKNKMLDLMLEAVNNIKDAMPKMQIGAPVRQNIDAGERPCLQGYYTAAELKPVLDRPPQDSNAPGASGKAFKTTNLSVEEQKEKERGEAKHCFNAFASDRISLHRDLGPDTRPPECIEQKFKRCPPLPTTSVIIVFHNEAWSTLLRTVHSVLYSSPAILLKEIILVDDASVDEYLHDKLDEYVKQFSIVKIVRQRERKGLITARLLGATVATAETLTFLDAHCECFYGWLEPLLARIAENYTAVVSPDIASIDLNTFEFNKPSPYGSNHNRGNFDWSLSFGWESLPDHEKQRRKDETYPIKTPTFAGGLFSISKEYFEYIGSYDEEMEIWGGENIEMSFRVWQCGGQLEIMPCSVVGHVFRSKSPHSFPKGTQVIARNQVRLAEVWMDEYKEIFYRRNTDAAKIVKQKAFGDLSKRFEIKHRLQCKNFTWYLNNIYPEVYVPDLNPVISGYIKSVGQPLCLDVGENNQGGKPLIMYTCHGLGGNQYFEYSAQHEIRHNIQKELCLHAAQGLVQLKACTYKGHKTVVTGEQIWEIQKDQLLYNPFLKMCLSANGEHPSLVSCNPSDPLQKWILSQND
Briefly: GalNAc-T3 transferase activities with UDP-GalNAc or UDP-Gal donor (EA2 acceptor, peptide panel). The format is biochemical. Particulars: UDP-Gal donor; printed Muc2 substrate. As to the method: (§2) Standard reaction mixtures (50 μl final volume) contained 25 mM cocadylate (pH 7.4), 10 mM MnCl2, 0.25% Triton X-100, 200 μM UDP-[^14C]-GalNAc (2,000 cpm/nmol) (Amersham), 200-500 μM acceptor peptides. Products were quantified by scintillation counting after chromatography on Dowex-1, octadecyl silica cartridges (Bakerbond), or HPLC (PC3.2/3 or mRPC C2/C18 SC2.1/10 Pharmacia, Smart System). […] Glycopeptides were purified on Supelclean LC-18 columns (1 ml, Supelco), and the number of GalNAc residues incorporated evaluated by MALDI-TOF mass spectrometry. The enzyme sources used were semipurified as previously described by successive sequential ion-exchange chromatographies on Amberlite (IRA95, Sigma) or DEAE Sephacel (Pharmacia), S-Sepharose Fast Flow (Pharmacia), and Mini-S™ (PC 3.2/3, Pharmacia) using the Smart System (Pharmacia) (28). Secreted GalNAc-T4 was obtained from a stably transfected CHO line (CHO/GalNA-T4/21A) (8) grown in roller bottles in HAMS F12 supplemented with 10% Fetal Bovine Serum. The experiments illustrated in FIG. 1 was performed with recombinant secreted GalNAc-T4 obtained from a stably transfected CHO line (8). Experiments illustrated in FIGS. 2 and 3 were performed with secreted GalNAc-T4 expressed in High Five cells grown in serum-free medium (8). Structural analysis of glycopeptides were performed by a combination of PFPA (pentafluoropropionic acid) hydrolysis and MALDI-TOF mass spectrometry as previously described (40). Secreted GalNAc-T7 was obtained from infected High Five™ cells grown in serum-free medium (Invitrogen) in upright roller bottles shaken 140 rpm in waterbaths at 27° C. GalNAc-T7 was not purified by Mini-S as the yields from cationic chromatography were low due to its low pI (6.4).
(§3) Galactosyl transferring activities of GalNAc-T1, -T2, and -T3, were assayed with a panel of acceptor peptides in standard reaction mixtures containing 100 μM UDP-Gal instead of UDP-GalNAc. […] Further, analysis was performed with 10 mM α-D-GalNAc-1-benzyl, αGlcNAc-benzyl, and fully occupied GalNAc-glycopeptide, GalNAC6TAP25, at 5 mM.

Experiment [3] relates to GalNAc-T4. As to the kind of experiment: Glycosylation independent activity of GalNAc-T4 with naked peptides, MALDI-TOF. The following applies: GalNAc-T4 459D or 459H. It is filed as biochemical, human. As for the experimental part:
as §1
Quantification of purified proteins was done by Coomassie stained SDS-PAGE and titration of immunoreactivity with the monoclonal antibody, UH6(4G2) (8). […] Wild-type GalNAc-T4 and mutant GalNAc-T4, GalNAc-T4^459H, were analysed with unglycosylated peptides (represented by PSGL-1) or GalNAc glycosylated glycopeptides (represented by GalNAc3TAP25V21) in reactions of 25 μl containing 2.5 nmol acceptor (glyco)peptide, 40 nmol UDP-GalNAc, and 0.4 μg GalNAc-T4. […]

Experiment [4] has as its target T3, GalNAc-T2 (Homo sapiens, UniProt Q10471).
T3 construct: Soluble, secreted expression constructs of human GalNAc-transferases GalNAc-T1, -T2, -T3, -T4, -T6, -T7, and -T11; made in house; host or cells: insect cells (baculovirus)
Briefly: GalNAc-T2 transferase activities with UDP-GalNAc or UDP-Gal donor (Muc2 acceptor, peptide panel). The format is biochemical. Particulars: UDP-Gal donor; Muc2 substrate. As for the experimental part: as §2, §3

T3 sequence (Q10471 52-571 limits assumed): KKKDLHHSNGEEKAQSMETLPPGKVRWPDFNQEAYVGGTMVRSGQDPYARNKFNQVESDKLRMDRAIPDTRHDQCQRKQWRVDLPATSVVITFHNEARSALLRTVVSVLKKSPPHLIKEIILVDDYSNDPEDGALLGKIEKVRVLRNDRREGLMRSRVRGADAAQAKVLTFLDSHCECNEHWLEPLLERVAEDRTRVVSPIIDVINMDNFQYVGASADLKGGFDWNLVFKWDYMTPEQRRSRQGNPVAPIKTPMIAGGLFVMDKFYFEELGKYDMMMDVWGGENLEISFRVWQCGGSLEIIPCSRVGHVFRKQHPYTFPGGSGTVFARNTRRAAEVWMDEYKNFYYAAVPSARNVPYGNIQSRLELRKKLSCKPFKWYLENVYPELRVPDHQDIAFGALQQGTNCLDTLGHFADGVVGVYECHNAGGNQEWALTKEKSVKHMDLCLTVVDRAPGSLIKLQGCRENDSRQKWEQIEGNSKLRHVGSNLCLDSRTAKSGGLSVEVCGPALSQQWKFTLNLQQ
T1 sequence (Q8N4A0 32-578): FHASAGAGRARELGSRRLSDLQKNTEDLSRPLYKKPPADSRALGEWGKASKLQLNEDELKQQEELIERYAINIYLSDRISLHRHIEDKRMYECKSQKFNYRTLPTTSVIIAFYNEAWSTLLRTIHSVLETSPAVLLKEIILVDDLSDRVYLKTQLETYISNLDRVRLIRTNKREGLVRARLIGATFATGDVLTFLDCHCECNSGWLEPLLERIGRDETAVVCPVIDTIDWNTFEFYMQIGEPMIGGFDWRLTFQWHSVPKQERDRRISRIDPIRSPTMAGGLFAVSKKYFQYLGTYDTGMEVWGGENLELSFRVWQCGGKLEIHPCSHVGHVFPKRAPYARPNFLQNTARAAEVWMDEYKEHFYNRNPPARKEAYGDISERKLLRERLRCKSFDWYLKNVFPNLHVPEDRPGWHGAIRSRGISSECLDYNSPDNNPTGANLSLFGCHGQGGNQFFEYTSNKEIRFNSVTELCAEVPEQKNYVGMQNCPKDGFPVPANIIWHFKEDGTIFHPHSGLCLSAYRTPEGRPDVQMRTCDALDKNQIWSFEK

In the case of `CC(=O)N[C@H]1C(O)O[C@H](CO)[C@H](O)[C@@H]1O` (stereo partly shown) [GalNAc, N-acetylgalactosamine], the “Inhibition of glycosylation dependent specificity of GalNAc-T4” value in experiment [1] was “almost completely inhibited”. For the same molecule, the “Inhibition of galactosyltransferase activity of GalNAc-T3” value in experiment [2] is given as “selectively inhibited”. The “Effect on glycosylation independent activities of GalNAc-T4” value in experiment [3] was “no effect”. Further, the “Inhibition of galactosyltransferase activity of GalNAc-T2” value in experiment [4] is given as “selectively inhibited”.
